Measurements: article PMC7169845, “Synthesis and Bioactivity of Phthalimide Analogs as Potential Drugs to Treat Schistosomiasis, a Neglected Disease of Poverty” (Pharmaceuticals, 2020)

Columns and labels:
[1] = test system: S. mansoni somules (schistosomula, post-infective larvae); assay: Phenotypic screen of S. mansoni somules (severity score); type: cell-based, Schistosoma mansoni
Procedure: (§1) Functionalized Pht-based molecules were synthesized, and phenotypically screened at 10 µM as a function of time against S. Mansoni somules (up to 72 h) and adults (up to 24 h). The resulting phenotypes were classified using a previously described nomenclature that records the many non-exclusive changes (descriptors) that can occur in the parasite in response to chemical insult. Each descriptor is converted into a value from 0 (no effect) to 4 (maximal effect) to allow for comparisons of effects on the parasite between compounds [40, 41, 42, 43]. For consistency, we consider a score of 2 to be the minimum for a compound to be considered active.
(§2) Maintenance of the S. mansoni (Naval Medical Research Institute (NMRI) isolate), life cycle involved male Golden Syrian Hamsters and Biomphalaria glabrata snails (NMRI isolate), as the definitive and intermediate hosts, respectively. Use of hamsters was approved by the Institutional Animal Care and Use Committee of the University of California San Diego. The preparation of somules (post-infective larvae derived from infectious larvae called cercariae) and adult worms (≥42-days-old), and their co-incubation with test compounds using a customized Basch incubation medium were as described. Screens of two developmental stages were employed in order to identify compounds with a potential broader spectrum of efficacy than the current drug, PZQ, which is deficient in this regard. Screens with somules employed 96-well round-bottomed plates and 40–50 animals/well, whereas screens with adults employed 24-well flat-bottomed plates and approximately 5–7 males and 2–3 females/well. Screens employed a final compound concentration of 10 µM in DMSO (at 0.5% and 0.1% final concentrations for somules and adults, respectively). The complex and often dynamic phenotypic responses that the schistosome parasite is capable of were observed using an Axiovert A1 inverted microscope at the times indicated in the data table. Observations were codified using a defined nomenclature that involves simple “descriptors”, to convey changes in shape, motility and appearance compared to DMSO controls. Each descriptor was given a value of 1 and these were added up to yield a “severity score” with a maximum of 4. Evidence of degeneracy or death was awarded a value of 4 for adult parasites specifically, the inability to adhere to the bottom of the well using oral or ventral suckers was given a score of 1 and damage to the tegument (surface) was awarded a value of 4 on the understanding that such damage in vivo would compromise survival. Scores were averaged across the two experiments.

[2] = test system: S. mansoni adults; assay: Phenotypic screen of S. mansoni adult worms (severity score); type: cell-based, Schistosoma mansoni
Procedure: as §1, §2

[3] = test system: HepG2-A16-CD81EGFP cells; assay: HepG2 cell cytotoxicity assay (CellTiter-Glo); type: cell-based; details: Homo sapiens, 72 h
Procedure: HepG2-A16-CD81EGFP cells (human hepatocarcinoma HepG2 cells stably transformed to express the tetraspanin CD81 receptor [51, 52]) were cultured at 37 °C in 5% CO2 in DMEM (without phenol red; Thermo Fisher Scientific, Waltham, MA, USA) supplemented with 10% FBS, 0.29 mg/mL glutamine, 100-unit penicillin and 100 μg/mL streptomycin. For cytotoxicity assays, compounds were prepared in 12-point 1:3 serial dilutions in DMSO starting at 10 mM. Then, 50 nL of compound (0.5% final DMSO concentration) were transferred with an Acoustic Transfer System (ATS) (Biosero) into white, solid bottom 1536-well assay plates (Greiner BioOne custom GNF mold; Monroe, NC, USA). Puromycin (12-point serial dilution starting at 10 μM) and 0.5% DMSO were used as positive and negative controls, respectively. After addition of compound, HepG2-A16-CD81EGFP cells in 10 µL of the above medium (5% FBS) were seeded into the assay plates at a density of 3,000 cells per well. Assay plates were incubated at 37 °C in 5% CO2for 72 h. To assess the HepG2 viability, the assay medium was removed by inverted centrifugation of the plate at 150 xg for 30 s. Then, 2 μL per well of CellTiter-Glo reagent (Promega diluted 1:2 with deionized water) was added using a MicroFlo liquid handler (BioTek). Immediately after addition of the CellTiter-Glo reagent, the luminescence was measured with an EnVision Multilabel reader (PerkinElmer). EC50 values were calculated using the normalized bioluminescence intensity and a non-linear, variable slope, four-parameter regression curve-fitting model in Prism 5 (GraphPad Software Inc., San Diego, CA, USA).

## CCC(C)C(c1nc2ccccc2n1Cc1cn(-c2ccc(F)cc2F)nn1)N1C(=O)c2ccccc2C1=O (centres unmarked) [6w, 2-(1-(1-((1-(2,4-Difluorophenyl)-1H-1,2,3-triazol-4-yl)methyl)-1H-benzo[d]imidazol-2-yl)-2-methylbutyl)isoindoline-1,3-dione]
[1]; 24 h, score 0 (no effect) to 4 (maximum), averaged across two experiments
  Somule Severity Score (10 µM) 24 h: 0
[1]; 24 h, score 0-4
  SOMULE SEVERITY SCORES @ 10 µM, 24: 0
[1]; 48 h, score 0-4
  SOMULE SEVERITY SCORES @ 10 µM, 48: 0
[1]; 48 h, score 0 to 4
  Somule Severity Score (10 µM) 48 h: 0
[1]; 72 h, phenotypic descriptors
  SOMULE DESCRIPTORS @ 10 µM, 72 h: pD50
[1]; 72 h, score 0-4
  SOMULE SEVERITY SCORES @ 10 µM, 72: 2
[1]; 72 h, score 0 to 4
  Somule Severity Score (10 µM) 72 h: 2
[2]; 1 h, score 0-4
  ADULT SEVERITY SCORES @ 10 µM, 1 h: 0
[2]; 1 h, score 0 to 4
  Adult Severity Score (10 µM) 1 h: 0
[2]; 5 h, phenotypic descriptors
  ADULT DESCRIPTORS @ 10 µM, 5 h: Unc, on sides
[2]; 5 h, score 0-4
  ADULT SEVERITY SCORES @ 10 µM, 5 h: 2
[2]; 5 h, score 0 to 4
  Adult Severity Score (10 µM) 5 h: 2
[2]; 24 h, phenotypic descriptors
  ADULT DESCRIPTORS @ 10 µM, 24 h: Unc, on sides
[2]; 24 h, score 0-4
  ADULT SEVERITY SCORES @ 10 µM, 24 h: 2
[2]; 24 h, score 0 to 4
  Adult Severity Score (10 µM) 24 h: 2
[3]
  IC50: > 100 µM
[3]; counter toxicity
  EC50: > 100 µM
